Patent US9434769B2, “Peptide compositions and methods for inhibiting herpesvirus infection” (priority 2009, dated 2016)
Like-named read-outs stand apart in the source and are kept apart here.

Assays:
Towne GFP strain of HCMV = type: cell-based, Human Cytomegalovirus (HCMV); conditions: for inhibition of viral infection: HFF cells, MOI 0.5, 48 hours post infection
Experimental: The Towne strain of HCMV containing the Green Fluorescent Protein (GFP) expression cassette was obtained from Dr. Dan Streblow at the Oregon Health Science University and was propagated in human foreskin fibroblast (HFF) cells. Viral supernatants were collected, centrifuged to clear cell debris, and filtered through a 0.45 μm filter. HFF cells were grown in Dulbecco's modified Eagle medium (DMEM) supplemented with 10% fetal bovine serum (FBS), penicillin G (100 U/mL), streptomycin ([…]), and GLUTAMAX™ L-glutamine supplement (2 mM) from Invitrogen.
Human foreskin fibroblasts were seeded at the density of about 3.5×10^5 cells in each well of a 24-well plate about 24 hours prior to infection. The HFF cells were washed with 1×DPBS, and mock or virus infected for about 90 minutes at room temperature (RT) with the Towne GFP strain of HCMV at about 0.5 multiplicity of infection (MOI), preincubated with a range of concentrations of inhibitory peptides at about 37° C. for about 90 minutes. After the infection, virus mixture was removed and 10% FBS complete DMEM was added to each well and cells were incubated at about 37° C. for about 48 hours. GFP positive cells were visualized about 48 hours post infection by fluorescence microscopy and then quantified using flow cytometry. […] HFF cells were trypsinized, centrifuged, and resuspended in 1% FBS-Dulbecco's phosphate buffered saline (DPBS). GFP positive cells were quantified using flow cytometry (CYTOMICS FC 500 from Beckman Coulter, Fullerton, Calif.).
All of the synthetic peptides were tested at the following concentrations: about 100 μM, 50 μM, 25 μM, 10 μM, 5 μM, 2.5 μM, 1.25 μM, 0.625 μM, 0.3125 μM, 0.156 μM, and 0.078 μM.

HSV-1 McIntyre strain = experiment: Inhibition of HSV-1 infection of Vero cells (Crystal Violet staining); type: cell-based, Herpes Simplex Virus 1 (HSV-1); conditions: MOI 0.001, peptide 2.5 to 100 μM; for inhibition of HSV-1 infection: 48 hours
Experimental: FIG. 6 illustrates inhibition of HSV-1 infection by HCMV gB peptides. To evaluate the ability of newly designed HCMV gB-specific peptide to inhibit HSV-1 infection, Vero cells were infected for about 90 minutes at room temperature with HSV-1 (McIntyre strain; MOI=0.001) that was preincubated with a range of concentrations of four different synthetic peptides at about 37° C. for about 90 minutes. Each treatment was done in triplicate, where A=media, B=HSV-1 MOI of 0.001, C=100 μM peptide and virus, D=50 μM peptide and virus, E=25 μM peptide and virus, F=10 μM peptide and virus, G=5 μM peptide and virus, H=2.5 μM peptide and virus. HCMV gB peptides (Peptide 174-200 (SEQ ID NO: 3), Peptide 233-263 (SEQ ID NO: 4), and Peptide 264-291 (SEQ ID NO: 5)) that are within domain II were inhibitory against HSV-1 infection. Peptide 476-494 (SEQ ID NO: 7) corresponds to trimerization domain of HCMV gB that contains extended α-helices important in the formation of HCMV gB homotrimer during fusion of HCMV virion and lipid membrane of the host cell. Overlapping inhibitory HSV-1 peptides span regions 496-510 and 501-515 of HSV-1 gB (SEQ ID NO: 8) and are analogous to HCMV gB Peptide 476-494 (SEQ ID NO: 7).
To evaluate the ability of HCMV gB peptides to inhibit infection by HSV-1, Vero cells were plated at a density of about 1.5×10^5 cells in each well of a 24 well-plate 24 hours prior to infection. The cells were washed and mock- or virus-infected for about 90 minutes at room temperature with HSV-1 McIntyre strain (ATCC) of about 0.001 MOI preincubated with a range of concentrations of four different synthetic peptides at about 37° C. for about 90 minutes. After exposure to the virus, the virus mixture was removed and the cells were overlayed with 2% FBS MEM containing 1% methylcellulose. Cells were incubated for about 48 hours at about 37° C. After about 48 hours, the cells were fixed, stained with Crystal Violet, and air dried.
In FIG. 6, each treatment was done in triplicate, where A=media, B=HSV-1 MOI of 0.001, C=100 μM peptide and virus, D=50 μM peptide and virus, E=25 μM peptide and virus, F=10 μM peptide and virus, G=5 μM peptide and virus, H=2.5 μM peptide and virus. […] Peptide 476-494 (SEQ ID NO: 7) corresponds to the trimerization domain of HCMV gB, which contains extended α-helices important in the formation of HCMV gB homotrimer during fusion of HCMV virion and lipid membrane of the host cell. Overlapping inhibitory HSV-1 peptides that span regions 496-510 and 501-515 of the HSV-1 gB protein (SEQ ID NO: 8) are analogous to HCMV gB peptide 476-494 (SEQ ID NO: 7). As predicted, HCMV Peptide 476-494 (SEQ ID NO: 7) worked best at the concentration of about 2.5 μM.

HCMV TRpMIA = experiment: Inhibition of HCMV TRpMIA infection of HFF cells (IE-1/IE-2 positive cells); type: cell-based, Human Cytomegalovirus (HCMV); conditions: for significance of inhibition of infection: vs non-treated infected control
Experimental: In order to assess the ability of the peptides of the present invention to inhibit a clinically significant HCMV (HCMV TRpMIA), Peptide 174-200 (SEQ ID NO:3), Peptide 233-263 (SEQ ID NO: 4), and Peptide 264-291 (SEQ ID NO: 5), were tested for inhibition of HCMV TRpMIA infection of HFF cells under the assay conditions similar to these described in Example 2 for the Towne strain of HCMV, above. In particular, HFF cells were plated in 96-well plates at a density of about 10,000 cells-per-well about 24 hours […]. Individual inhibitory peptides were evaluated against 0.5 MOI HCMV TRpMIA preincubated with various concentrations in the range of about 0.078 micromolar to about 100 micromolar. The results obtained from these assays are shown in FIG. 13, FIG. 14, and FIG. 15 for Peptide 174-200, Peptide 233-263, and Peptide 264-291, respectively. The degree of HCMV infection was determined by evaluating the number of cells expressing immediate-early 1 (IE-1) or IE-2 HCMV proteins 24 hours post-infection. Treatments resulting in significant reductions in the number of cells that were positive for IE 1, IE-2, or both, compared to non-treated control HCMV infected cells, are denoted by a * (p<0.05), ** (p<0.01), and *** (p<0.001, one-way ANOVA and Tukey's post test). Variants and derivatives of Peptide 233-263 (SEQ ID NO: 4) also were prepared and tested in the same assay. The sequences of the tested variants and derivatives are shown in Table 4, with additions or modifications from SEQ ID NO: 4 shown in boldface type.

[1] = pregnancy; cited from earlier work
HIV-1 = conditions: cited from earlier work
[2] = 50 micromolar, 24 hours post-infection
[3] = 100 micromolar, 24 hours post-infection
[4] = 25 micromolar, 24 hours post-infection
[5] = 25 micromolar to 100 micromolar

Substance: FFIFPNYTIVSDFGRPNAA (human cytomegalovirus glycoprotein B peptide) [Peptide 297-315, synthetic peptide of HCMV gB residues 297-315]
- inhibition of viral infection (Towne GFP strain of HCMV; peptide 50 μM): about 40%

Substance: HFFATSTGDVVYISPFYNGTNRNASYFG (human cytomegalovirus glycoprotein B peptide) [Peptide 264-291, synthetic peptide of HCMV gB residues 264-291]
- inhibition of viral infection (Towne GFP strain of HCMV; peptide 5 μM): about 70.5%
- inhibition of HSV-1 infection (HSV-1 McIntyre strain): inhibited HSV-1 infection
- significance of inhibition of infection (HCMV TRpMIA; [2]): * (* (p<0.05))
- significance of inhibition of infection (HCMV TRpMIA; [3]): * (* (p<0.05))

Substance: HNLVYAQLQFTYDTLRGYI (human cytomegalovirus glycoprotein B peptide) [Peptide 476-494, synthetic peptide of the trimerization domain of HCMV gB, residues 476-494]
- number of HCMV infected cells versus peptide concentration (Towne GFP strain of HCMV; decreasing peptide concentration): the number of HCMV infected cells decreased as the concentration of this peptide decreased
- inhibitory activity against HCMV strain Towne-GFP (Towne GFP strain of HCMV; high concentrations tested): did not show any inhibitory activity
- concentration at which the peptide worked best against HSV-1 (HSV-1 McIntyre strain): about 2.5 μM

Substance: KDQWHSRGSTWLYRETANLNAMLTITTARSKYPY (Modified HCMV gB peptide) [Peptide 233-263.1]
- inhibition of HCMV TRpMIA infection compared to Peptide 233-263 (HCMV TRpMIA): less effective
- inhibition relative to the controls (HCMV TRpMIA): some level of inhibition

Substance: KDQWHSRGSTWLYRETANLNAMLTITTARSKYPYHFFATS [Peptide 233-263.4]
- inhibition of HCMV TRpMIA infection compared to Peptide 233-263 (HCMV TRpMIA): less effective
- inhibition relative to the controls (HCMV TRpMIA): some level of inhibition

Substance: VTVKDQWHSRGSTWLYRETANLNAMLTITTARSKYPY (Modified HCMV gB peptide) [Peptide 233-263.2]
- inhibition of HCMV TRpMIA infection compared to Peptide 233-263 (HCMV TRpMIA): less effective
- inhibition relative to the controls (HCMV TRpMIA): some level of inhibition

Substance: WEIHHINKFAQAYSSYSRVIGGTVFVA [Peptide 174-200]
- inhibition of viral infection (Towne GFP strain of HCMV; peptide 2.5 μM): ~62%
- inhibition of viral infection (Towne GFP strain of HCMV; peptide 5 μM): about 51%
- inhibition of viral infection (Towne GFP strain of HCMV; peptide 100 μM): about 80%
- inhibition of HSV-1 infection (HSV-1 McIntyre strain): inhibited HSV-1 infection
- significance of inhibition of infection (HCMV TRpMIA; [4]): ** (** (p<0.01))
- significance of inhibition of infection (HCMV TRpMIA; [2]): * (* (p<0.05))
- significance of inhibition of infection (HCMV TRpMIA; [3]): *** (*** (p<0.001, one-way ANOVA and Tukey's post test))

Substance: WHSRGSTWLYRAETANLNAMLTITTARSKYPY (Modified HCMV gB peptide) [Peptide 233-263.5]
- inhibition of HCMV TRpMIA infection compared to Peptide 233-263 (HCMV TRpMIA): less effective
- inhibition relative to the controls (HCMV TRpMIA): some level of inhibition

Substance: WHSRGSTWLYRETANLNAMLTITTARSKYPY [Peptide 233-263]
- inhibition of infection seen in fluorescent and bright light images (FIG. 4) (Towne GFP strain of HCMV; 100 μM, MOI 0.5, 48 hours post-infection): effectively inhibited infection of the cells
- inhibition of viral infection (Towne GFP strain of HCMV; peptide 2.5 μM): about 60%
- inhibition of viral infection (Towne GFP strain of HCMV; peptide 50 μM): about 92%
- inhibition of viral infection (Towne GFP strain of HCMV; peptide 100 μM): about 97%
- inhibition of HSV-1 infection (HSV-1 McIntyre strain): inhibited HSV-1 infection
- significance of inhibition of infection (HCMV TRpMIA; 5 micromolar, 24 hours post-infection): * (* (p<0.05))
- significance of inhibition of infection (HCMV TRpMIA; 10 micromolar, 24 hours post-infection): *** (*** (p<0.001, one-way ANOVA and Tukey's post test))
- significance of inhibition of infection (HCMV TRpMIA; [4]): *** (*** (p<0.001, one-way ANOVA and Tukey's post test))
- significance of inhibition of infection (HCMV TRpMIA; [2]): *** (*** (p<0.001, one-way ANOVA and Tukey's post test))
- extent of inhibition of infection (HCMV TRpMIA; 50 to 100 micromolar): almost complete inhibition
- significance of inhibition of infection (HCMV TRpMIA; [3]): *** (*** (p<0.001, one-way ANOVA and Tukey's post test))

Substance: WHSRGSTWLYRETANLNAMLTITTARSKYPYGRKKRRQRRRP (human cytomegalovirus glycoprotein B peptide) [Peptide 233-263.8]
- inhibition of HCMV TRpMIA infection compared to Peptide 233-263 (HCMV TRpMIA): less effective
- inhibition relative to the controls (HCMV TRpMIA): some level of inhibition

Substance: WHSRGSTWLYRETANLNAMLTITTARSKYPYHFF (Modified HCMV gB peptide) [Peptide 233-263.3]
- inhibition of HCMV TRpMIA infection compared to Peptide 233-263 (HCMV TRpMIA): less effective
- inhibition relative to the controls (HCMV TRpMIA): some level of inhibition

Substance: WHSRGSTWLYRETANLNAMLTITTARSKYPYP (Modified HCMV gB peptide) [Peptide 233-263.6]
- inhibition of HCMV TRpMIA infection compared to Peptide 233-263 (HCMV TRpMIA): less effective
- inhibition relative to the controls (HCMV TRpMIA): some level of inhibition

Substance: WHSRGSTWLYRETANLNAMLTITTARSKYPYRRRRRRRRR (human cytomegalovirus glycoprotein B peptide) [Peptide 233-263.9]
- extent of inhibition of infection (HCMV TRpMIA; [5]): almost complete inhibition
- significance of inhibition of infection (HCMV TRpMIA; [5]): *** (*** (p<0.001, one-way ANOVA and Tukey's post test))
- inhibition of HCMV TRpMIA infection compared to Peptide 233-263 (HCMV TRpMIA): significant improvement

Substance: enfuvirtide
- crossing of the placenta [1]: does not cross the placenta
- vertical transmission of HIV-1 in pregnancy (HIV-1): prevents vertical transmission of HIV-1 in pregnancy
